Reference: patent publication US20230113037A1 (Bayer Aktiengesellschaft, priority 2019, published 2023)
Like-named read-outs stand apart in the source and are kept apart here.

Tests used:
AHR [1] = target: T1, AHR (Mus musculus, UniProt P30561); experiment: In vitro assay 3: antagonism in mouse cell line (AHR transactivation, firefly luciferase reporter, kynurenic acid prestimulated); assay type: cell-based
T1 sequence (P30561 1-848 P471L/N533S/M589L): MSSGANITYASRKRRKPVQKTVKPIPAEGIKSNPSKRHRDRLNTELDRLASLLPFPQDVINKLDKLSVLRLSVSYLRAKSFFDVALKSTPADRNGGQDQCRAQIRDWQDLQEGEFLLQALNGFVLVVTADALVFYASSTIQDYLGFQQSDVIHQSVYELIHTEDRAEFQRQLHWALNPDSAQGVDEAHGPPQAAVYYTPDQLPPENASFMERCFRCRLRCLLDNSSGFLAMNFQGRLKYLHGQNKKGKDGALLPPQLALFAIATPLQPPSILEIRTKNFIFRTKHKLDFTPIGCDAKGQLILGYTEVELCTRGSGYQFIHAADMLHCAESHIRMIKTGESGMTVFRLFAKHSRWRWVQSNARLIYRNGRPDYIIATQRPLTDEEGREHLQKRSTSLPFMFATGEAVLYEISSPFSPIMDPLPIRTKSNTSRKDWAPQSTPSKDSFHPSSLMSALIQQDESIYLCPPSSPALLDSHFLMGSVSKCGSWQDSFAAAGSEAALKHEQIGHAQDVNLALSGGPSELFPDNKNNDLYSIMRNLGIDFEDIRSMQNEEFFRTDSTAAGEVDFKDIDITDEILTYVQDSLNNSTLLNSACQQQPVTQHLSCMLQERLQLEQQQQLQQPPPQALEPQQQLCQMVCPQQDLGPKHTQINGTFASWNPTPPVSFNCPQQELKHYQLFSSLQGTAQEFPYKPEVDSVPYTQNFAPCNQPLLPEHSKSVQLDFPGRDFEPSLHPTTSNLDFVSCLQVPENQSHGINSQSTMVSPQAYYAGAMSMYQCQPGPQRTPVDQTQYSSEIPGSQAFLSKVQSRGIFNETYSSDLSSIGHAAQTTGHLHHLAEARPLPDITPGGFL
Procedure, shortened: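 Luminescence from an AHR-dependent DRE-luciferase reporter, stably integrated in mouse cells, quantifies blockade of kynurenic acid-driven activation. Unstimulated cells mark maximal inhibition; normalization uses both control types, and multiply tested compounds carry mean or median values.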

AHR [2] = target: T2, AHR (Homo sapiens, UniProt P35869); experiment: In vitro assay 1: antagonism in human cell line (AHR transactivation, firefly luciferase reporter, kynurenic acid prestimulated); assay type: cell-based; conditions: AHR Antagonism Human IC50 [M]
T2 construct: U87 MG glioblastoma cells (ATCC #HTB-14) endogenously expressing AHR; endogenous in cells; host or cells: U87 MG glioblastoma cells (ATCC #HTB-14)
T2 sequence (P35869 11-848): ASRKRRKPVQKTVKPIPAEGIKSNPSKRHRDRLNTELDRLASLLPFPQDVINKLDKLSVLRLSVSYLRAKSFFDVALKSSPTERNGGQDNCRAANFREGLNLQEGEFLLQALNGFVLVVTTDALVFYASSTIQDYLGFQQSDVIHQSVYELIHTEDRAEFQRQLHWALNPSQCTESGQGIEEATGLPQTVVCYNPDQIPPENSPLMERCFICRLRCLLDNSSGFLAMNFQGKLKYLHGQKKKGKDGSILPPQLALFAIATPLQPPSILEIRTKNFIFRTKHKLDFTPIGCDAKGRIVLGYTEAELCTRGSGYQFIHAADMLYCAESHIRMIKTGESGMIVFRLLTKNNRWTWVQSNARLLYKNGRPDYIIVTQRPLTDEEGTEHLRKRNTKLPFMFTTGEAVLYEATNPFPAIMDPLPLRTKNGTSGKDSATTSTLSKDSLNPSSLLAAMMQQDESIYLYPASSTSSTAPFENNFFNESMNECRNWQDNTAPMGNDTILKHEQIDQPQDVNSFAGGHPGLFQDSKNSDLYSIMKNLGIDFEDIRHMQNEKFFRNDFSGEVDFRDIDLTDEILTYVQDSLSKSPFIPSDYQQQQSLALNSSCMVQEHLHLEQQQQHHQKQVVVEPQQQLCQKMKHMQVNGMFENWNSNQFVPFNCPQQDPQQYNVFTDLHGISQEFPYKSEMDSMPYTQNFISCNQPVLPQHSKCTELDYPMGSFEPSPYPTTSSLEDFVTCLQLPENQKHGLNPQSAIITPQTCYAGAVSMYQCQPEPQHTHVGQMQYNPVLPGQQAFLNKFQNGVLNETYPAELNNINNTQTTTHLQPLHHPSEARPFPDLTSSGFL
Procedure, shortened: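 Antagonism is measured against kynurenic acid prestimulation in U87 MG glioblastoma cells carrying stable DRE-luciferase and Renilla reporters. Positive inhibition control: 150 μM kynurenic acid with 5 μM staurosporine. Values are normalized to controls; repeats are averaged or given as medians.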

[3] = mouse Hepa 1c1c7 cells, 200 μM kynurenic acid, 20 hours, read-out: AHR Antagonism Mouse IC50
[4] = Hepa 1c1c7 cells, 200 μM kynurenic acid, 20 hours, firefly luciferase reporter, read-out: AHR Antagonism Mouse IC50

Row | Compound | IC50 (AHR [1]; [3]) [nM] | IC50 (AHR [2]) [M] | IC50 (AHR [1]; [4]) [nM] | IC50 (AHR [2]; firefly luciferase reporter) [M] | IC50 (AHR [1]; read-out: AHR Antagonism Mouse IC50, mouse Hepa 1c1c7 cells, 200 μM kynurenic acid, 20 hours) [nM]
1 | COc1cccc(-c2nc3c4cc(F)ccc4nc(NC4CCNC4=O)n3n2)c1 (single isomer, unassigned) [Example 186, 3-{[9-fluoro-2-(3-methoxyphenyl)[1,2,4]triazolo[1,5-c]quinazolin-5-yl]amino}pyrrolidin-2-one] | 27.6 | 2.09e-08 | – | – | –
2 | CC[C@@H](Nc1nc2ccccc2c2nc(-c3cnccc3C(F)(F)F)nn12)C(N)=O [Example 491, (2R)-2-({2-[4-(trifluoromethyl)pyridin-3-yl][1,2,4]triazolo[1,5-c]quinazolin-5-yl}amino)butanamide] | 50.5 | 9.72e-08 | – | – | –
3 | CCCNC(=O)[C@@H](C)Nc1nc2ccccc2c2nc(-c3ccc(S(C)(=O)=O)cc3)nn12 [Example 439, N^2-{2-[4-(methanesulfonyl)phenyl][1,2,4]triazolo[1,5-c]quinazolin-5-yl}-N-propyl-D-alaninamide] | 27 | 4.52e-08 | – | – | –
4 | CCCNC(=O)[C@H](C)Nc1nc2c(Br)cccc2c2nc(-c3cnn(C)c3)nn12 [Example 795, N^2-[7-bromo-2-(1-methyl-1H-pyrazol-4-yl)[1,2,4]triazolo[1,5-c]quinazolin-5-yl]-N-propyl-L-alaninamide] | – | – | 3130 | 2.46e-07 | –
5 | COc1cccc(-c2nc3c4c(C)cccc4nc(NC4CCNC4=O)n3n2)c1 (centres unmarked) [Example 179, 3-{[2-(3-methoxyphenyl)-10-methyl[1,2,4]triazolo[1,5-c]quinazolin-5-yl]amino}pyrrolidin-2-one] | – | 1.01e-07 | – | – | 246
6 | C[C@@H](Nc1nc2c(Br)cccc2c2nc(-c3cnn(C)c3)nn12)C(=O)N1C[C@@H]2C[C@H]1CN2C [Example 900] | – | – | 72.3 | 4.4e-08 | –
7 | CCS(=O)(=O)c1cccc2c1nc(N[C@@H]1CNCCNC1=O)n1nc(-c3cnn(C)c3)nc21 [Example 942, (6R)-6-{[7-(ethanesulfonyl)-2-(1-methyl-1H-pyrazol-4-yl)[1,2,4]triazolo[1,5-c]quinazolin-5-yl]amino}-1,4-diazepan-5-one] | – | – | 4750 | 7.67e-07 | –
8 | CC(C)n1cc(-c2nc3c4cccc(S(C)(=O)=O)c4nc(N[C@@H]4CCCCNC4=O)n3n2)cn1 [Example 846, (3R)-3-({7-(methanesulfonyl)-2-[1-(propan-2-yl)-1H-pyrazol-4-yl][1,2,4]triazolo[1,5-c]quinazolin-5-yl}amino)azepan-2-one] | – | – | 232 | 1.29e-08 | –
9 | CC[C@@H](Nc1nc2ccccc2c2nc(-c3ccncc3F)nn12)C(N)=O [Example 484, (2R)-2-{[2-(3-fluoropyridin-4-yl)[1,2,4]triazolo[1,5-c]quinazolin-5-yl]amino}butanamide] | 27.6 | 9.06e-08 | – | – | –
10 | COc1cscc1-c1nc2c3ccccc3nc(N[C@@H]3CCN(C)C3=O)n2n1 [Example 337, (3R)-3-{[2-(4-methoxythiophen-3-yl)[1,2,4]triazolo[1,5-c]quinazolin-5-yl]amino}-1-methylpyrrolidin-2-one] | > 20000 | 1.71e-06 | – | – | –
11 | COc1ccc(-c2nc3c4cccc(Br)c4nc(N[C@H](C)C(=O)NCCN4CCN(C)CC4)n3n2)cc1 [Example 780, N^2-[7-bromo-2-(4-methoxyphenyl)[1,2,4]triazolo[1,5-c]quinazolin-5-yl]-N-[2-(4-methylpiperazin-1-yl)ethyl]-D-alaninamide] | 5.55 | 4.91e-09 | – | – | –
12 | CC(C)n1cc(-c2nc3c4cccc(C(F)(F)F)c4nc(N[C@@H]4CS(=O)(=O)CCNC4=O)n3n2)cn1 [Example 852, (6S)-6-({2-[1-(propan-2-yl)-1H-pyrazol-4-yl]-7-(trifluoromethyl)[1,2,4]triazolo[1,5-c]quinazolin-5-yl}amino)-1λ^6,4-thiazepane-1,1,5-trione] | – | – | 66.2 | 8.28e-09 | –
13 | Cn1cc(-c2nc3c4ccccc4nc(N[C@H]4CCCCNC4=O)n3n2)cn1 [Example 14, (3S)-3-{[2-(1-methyl-1H-pyrazol-4-yl)[1,2,4]triazolo[1,5-c]quinazolin-5-yl]amino}azepan-2-one] | 234 | 2.14e-07 | – | – | –
14 | O=C1NCCNC[C@H]1Nc1nc2ccccc2c2nc(-c3cc(F)ccc3OC(F)(F)F)nn12 [Example 719, (6R)-6-({2-[5-fluoro-2-(trifluoromethoxy)phenyl][1,2,4]triazolo[1,5-c]quinazolin-5-yl}amino)-1,4-diazepan-5-one] | 239 | 9.56e-06 | – | – | –
15 | CCn1nc(C)c(-c2nc3c4cccc(C(F)(F)F)c4nc(N[C@@H]4CCCCNC4=O)n3n2)c1C [Example 738, (3R)-3-{[2-(1-ethyl-3,5-dimethyl-1H-pyrazol-4-yl)-7-(trifluoromethyl)[1,2,4]triazolo[1,5-c]quinazolin-5-yl]amino}azepan-2-one] | 1.03 | 3.4e-09 | – | – | –
16 | COc1ccc(-c2nc3c4cccc(C#N)c4nc(N[C@@H]4CCCCNC4=O)n3n2)cc1 [Example 721, 2-(4-methoxyphenyl)-5-{[(3R)-2-oxoazepan-3-yl]amino}[1,2,4]triazolo[1,5-c]quinazoline-7-carbonitrile] | 10.6 | 2.47e-09 | – | – | –
17 | N#Cc1cccc2c1nc(N[C@@H]1CCCCNC1=O)n1nc(-c3cnn(C(F)F)c3)nc21 [Example 764, 2-[1-(difluoromethyl)-1H-pyrazol-4-yl]-5-{[(3R)-2-oxoazepan-3-yl]amino}[1,2,4]triazolo[1,5-c]quinazoline-7-carbonitrile] | 1.73 | 1.86e-09 | – | – | –
18 | COc1cccc2c1nc(N[C@@H]1CCCCNC1=O)n1nc(-c3cnn(C4CCC4)c3)nc21 [Example 758, (3R)-3-{[2-(1-cyclobutyl-1H-pyrazol-4-yl)-7-methoxy[1,2,4]triazolo[1,5-c]quinazolin-5-yl]amino}azepan-2-one] | 19.6 | 1.35e-08 | – | – | –
19 | COc1ccc(-c2nc3c4cccc(Br)c4nc(N[C@H](C)C(=O)NCC(C)(C)N)n3n2)cc1 [Example 789, N-(2-amino-2-methylpropyl)-N^2-[7-bromo-2-(4-methoxyphenyl)[1,2,4]triazolo[1,5-c]quinazolin-5-yl]-D-alaninamide] | – | – | 17.1 | 4.3e-08 | –
20 | COc1cccc(-c2nc3c4ccccc4nc(N[C@H](C)C(N)=O)n3n2)c1 [Example 92, N^2-[2-(3-methoxyphenyl)[1,2,4]triazolo[1,5-c]quinazolin-5-yl]-D-alaninamide] | 4.38 | 8.63e-09 | – | – | –
21 | N#Cc1cccc(-c2nc3c4ccccc4nc(NC4CCCCCNC4=O)n3n2)c1 (centres unmarked) [Example 443, 3-(5-{[2-oxoazocan-3-yl]amino}[1,2,4]triazolo[1,5-c]quinazolin-2-yl)benzonitrile] | 0.672 | 1.02e-08 | – | – | –
22 | N#Cc1cccc(-c2nc3c4ccccc4nc(N[C@@H]4CCCCNC4=O)n3n2)c1 [Example 381, 3-(5-{[(3R)-2-oxoazepan-3-yl]amino}[1,2,4]triazolo[1,5-c]quinazolin-2-yl)benzonitrile] | 1.51 | 1.02e-08 | – | – | –
